Source: patent publication US5354862A, “Preparation and the use of halopropargylated cyclic quaternary ammonium compounds as antimicrobial agents” (Rohm and Haas Company, priority 1993, dated 1994)
Like-named read-outs stand apart in the source and are kept apart here.

Tests used:
Assay in all cases: Broth two-fold serial dilution MIC test
Pseudomonas aeruginosa = assay type: cell-based, Pseudomonas aeruginosa (ATCC 15442); conditions: Table 2, Psae
Description: (§1) A minimum inhibitory concentration (MIC) value is obtained using a broth, two-fold serial dilution test performed as follows: A stock solution or dispersion of the test compound, typically at a concentration of 1%, is made in a 5:3:2 solvent solution of acetone. methanol, and water. A volume of the stock solution is dispensed into culture media to give an initial starting test concentration of 500 ppm compound.
(§2) When the test is ready to be done, each vessel in the dilution series, except the first vessel, contains an equal volume of compound free broth. The first vessel contains twice the volume of broth with the starting concentration of test compound. One half of the broth from the first vessel is transferred to the second vessel- After being mixed, one half the resulting volume is removed from the second vessel and transferred to the third vessel. The entire cycle is repeated sufficiently to give a series of concentrations amounting to 500, 250, 125, 63, 31, 16, 8, and 4, 2, 1, 0.5, 0.25 ppm respectively.
(§3) Each vessel is then inoculated with a cell suspension of the appropriate test organism. Bacteria are grown in broth, fungi on agar slants for a time and at a temperature appropriate to the species being tested, and algae are a mixture of green algae and blue-green bacteria grown in a nutrient media. At the end of the growth period, in the case of bacteria, the broth is vortexed to disperse the cells.
(§4) In the case of fungi, the spores are harvested by pipetting water onto the slant and dislodging the spores with a sterile loop. The cell/spore suspension is standardized by controlling incubation time, temperature, and the volume of the diluent. The suspension is then used to inoculate the vessels containing the broth compound.
(§5) The vessels are then incubated at the appropriate temperature. After the incubation, the vessels are examined for growth/no growth. The minimum inhibitory concentration (MIC) is defined as the lowest concentration of compound that results in complete inhibition of growth of the test organism.
1. Pseudomonas aeruginosa

Staphylococcus aureus = assay type: cell-based, Staphylococcus aureus (ATCC 6538); conditions: Table 2, Saur
Description: as §1, §2, §3, §4, §5
2. Staphylococcus aureus

Aspergillus niger = assay type: cell-based, Aspergillus niger (ATCC 6275); conditions: Table 2, Anig, TSB media
Description: as §1, §2, §3, §4, §5
4. Aspergillus niger 6275 Anig

Escherichia coli = assay type: cell-based, Escherichia coli (ATCC 11229); conditions: Table 2, Ecol
Description: as §1, §2, §3, §4, §5

[1] = Pseudomonas aeruginosa, M9G media, read-out: MIC
[2] = Pseudomonas aeruginosa, TSB media, read-out: MIC
[3] = Staphylococcus aureus, M9G media, read-out: MIC
[4] = Staphylococcus aureus, TSB media, read-out: MIC
[5] = Aspergillus niger, read-out: MIC
[6] = Escherichia coli, TSB media, read-out: MIC
[7] = Escherichia coli, M9G media, read-out: MIC

| MIC (Pseudomonas aeruginosa; M9G media) [ppm] | MIC (Pseudomonas aeruginosa; TSB media) [ppm] | MIC (Staphylococcus aureus; M9G media) [ppm] | MIC (Staphylococcus aureus; TSB media) [ppm] | MIC (Aspergillus niger) [ppm] | MIC (Escherichia coli; M9G media) [ppm] | MIC (Escherichia coli; TSB media) [ppm] | MIC (Pseudomonas aeruginosa; [1]) [mg/L] | MIC (Pseudomonas aeruginosa; [2]) [mg/L] | MIC (Staphylococcus aureus; [3]) [mg/L] | MIC (Staphylococcus aureus; [4]) [mg/L] | MIC (Aspergillus niger; [5]) [mg/L] | MIC (Escherichia coli; [6]) [mg/L] | MIC (Escherichia coli; [7]) [mg/L] | SMILES |
| --- | --- | --- | --- | --- | --- | --- | --- | --- | --- | --- | --- | --- | --- | --- |
| 250 | 500 | 0.25 | 2 | 8 | 2 | 4 | – | – | – | – | – | – | – | CCCCCCCCCC[N+]1(CC#CI)CCCC1 [Compound 78, 1-decyl-1-(3-iodopropargyl)-pyrrolidinium bromide] |
| 32 | 64 | 0.25 | 1 | 2 | 1 | 4 | – | – | – | – | – | – | – | CCCCCCCCCCCC[N+]1(CC#CI)CCCC1 [Compound 79, 1-dodecyl-1-(3-iodopropargyl)-pyrrolidinium bromide] |
| 500 | > 500 | 32 | 64 | 16 | 8 | 64 | – | – | – | – | – | – | – | CCCCCCCCCCOC(=O)CC[N+]1(CC#CI)CCOCC1 [Compound 96] |
| > 500 | > 500 | 250 | 250 | > 500 | 64 | 64 | – | – | – | – | – | – | – | CCCC[N+]1(CC#CI)CCCC1 [Compound 77, 1-n-butyl-1-(3-iodopropargyl)-pyrrolidinium bromide] |
| – | – | – | – | 125 | – | – | > 500 | > 500 | 2 | 8 | – | 64 | 32 | CCCCCCOC(=O)CCCCC[N+]1(CC#CI)CCCC1 [Compound 82, 1-[5-(hexyloxycarbonyl)]pentyl-1-(3-iodopropargyl)-pyrrolidinium 4-methylbenzenesulfonate] |
| – | – | – | – | – | – | – | 250 | > 500 | 1 | 8 | 32 | 8 | 4 | CCCCCCCCCC[N+]1(CC#CI)CCOCC1 [Compound 91, 4-decyl-4-(3-iodopropargyl)-morpholinium methanesulfonate] |
| > 500 | > 500 | 4 | 8 | 125 | 16 | 32 | – | – | – | – | – | – | – | CCCCCCOC(=O)CCCCC[N+]1(CC#CI)CCOCC1 [Compound 83, 4-[5-(hexyloxycarbonyl)]pentyl-4-(3-iodopropargyl)-morpholinium methanesulfonate] |
| – | – | – | – | – | – | – | > 500 | > 500 | 500 | > 500 | > 500 | 125 | 125 | CC[N+]1(CC#CI)CCOCC1 [Compound 94, 4-ethyl-4-(3-iodopropargyl)-morpholinium methanesulfonate] |

Further lines, the compound ahead of its results:

| SMILES | MIC (Pseudomonas aeruginosa; M9G media) [ppm] | MIC (Pseudomonas aeruginosa; TSB media) [ppm] | MIC (Staphylococcus aureus; M9G media) [ppm] | MIC (Staphylococcus aureus; TSB media) [ppm] | MIC (Aspergillus niger) [ppm] | MIC (Escherichia coli; M9G media) [ppm] | MIC (Escherichia coli; TSB media) [ppm] | MIC (Pseudomonas aeruginosa; [1]) [mg/L] | MIC (Pseudomonas aeruginosa; [2]) [mg/L] | MIC (Staphylococcus aureus; [3]) [mg/L] | MIC (Staphylococcus aureus; [4]) [mg/L] | MIC (Aspergillus niger; [5]) [mg/L] | MIC (Escherichia coli; [6]) [mg/L] | MIC (Escherichia coli; [7]) [mg/L] |
| --- | --- | --- | --- | --- | --- | --- | --- | --- | --- | --- | --- | --- | --- | --- |
| OCCCCCCCCCCCC[N+]1(CC#CI)CCCCC1 [Compound 20, 1-(12-hydroxydodecyl)-1-(3-iodopropargyl)-piperidinium 4-methylbenzenesulfonate] | – | – | – | – | – | – | – | > 250 | > 250 | 8 | 63 | 125 | 250 | – |
| CCCCCCCCCCCCCC[N+]1(CC#CI)CCCCC1 [Compound 85, 1-tetradecyl-1-(3-iodoproparygyl)-piperidinium n-butylsulfonate] | 8 | 32 | 0.25 | 0.25 | 4 | 1 | 4 | – | – | – | – | – | – | – |
| OCCCCCCCCCCCC[N+]1(CC#CI)CCCCCC1 [Compound 27, 1-(12-hydroxydodecyl)-1-(3-iodopropargyl)-hexamethyleneiminium 4-methylbenzenesulfonate] | – | – | – | – | – | – | – | > 250 | > 250 | 16 | 32 | 32 | 250 | – |
| CCCCCCCCCCCCCCCC[N+]1(CC#CI)CCCC1 [Compound 7, 1-hexadecyl-1-(3-iodopropargyl)-pyrrolidinium 4-methylbenzenesulfonate] | 4 | 8 | – | – | 1 | – | 2 | – | – | < 0.25 | < 0.25 | – | – | 4 |
| CCCCCCCCCCCCCC[N+]1(CC#CI)CCCC1 [Compound 69, 1-tetradecyl-1-(3-iodopropargyl)-pyrrolidinium bromide] | 8 | 32 | 0.25 | 0.25 | 4 | 1 | 4 | – | – | – | – | – | – | – |
| OCCCCCCCC[N+]1(CC#CI)CCCCC1 [Compound 23, 1-(8-hydroxyoctyl)-1-(3-iodopropargyl)-1-piperidinium 4-methylbenzenesulfonate] | – | – | – | – | – | – | – | > 500 | > 500 | 63 | 250 | > 500 | > 500 | – |
| CCCCCCCCCCC[N+]1(CC#CI)CCCC1 [Compound 15, 1-undecyl-1-(3-iodopropargyl)-pyrrolidinium 4-methylbenzenesulfonate] | – | – | – | – | – | – | – | 32 | 32 | 0.25 | 0.25 | 16 | 2 | 1 |
| CCCCCCCCCCCCCC[N+]1(CC#CI)CCCCC1 [Compound 59, 1-tetradecyl-1-(3-iodopropargyl)-piperidinium benzenesulfonate] | 32 | 125 | 4 | 4 | 8 | 8 | 16 | – | – | – | – | – | – | – |
| CCCCCCCCCCCCCCC[N+]1(CC#CI)CCCC1 [Compound 10, 1-pentadecyl-1-(3-iodopropargyl)-pyrrolidinium 4-methylbenzenesulfonate] | 8 | 250 | – | 1 | – | 4 | 32 | – | – | < 0.25 | – | < 0.25 | – | – |
| OCCCCCCC[N+]1(CC#CI)CCCC1 [Compound 4, 1-(7-hydroxyheptyl)-1-(3-iodopropargyl)-pyrrolidinium 4-methybenzenesulfonate] | – | – | – | – | – | – | – | > 500 | > 500 | 500 | 500 | 250 | 500 | > 500 |
| CCCCCCCCCCCC[N+]1(CC#CI)CCCC1 [Compound 30, 1-dodecyl-1-(3-iodopropargyl)-pyrrolidinium benzenesulfonate] | 63 | 63 | 1 | 1 | 1 | 2 | 16 | – | – | – | – | – | – | – |
| CCCCCCCCCCCCCC[N+]1(CC#CI)CCCCC1C (centres unmarked) [Compound 51, 1-(tetradecyl)-1-(3-iodopropargyl)-2-methylpiperidinium benzenesulfonate] | 16 | 16 | < 0.25 | < 0.25 | – | – | 2 | – | – | – | – | 0.5 | – | 4 |
| IC#CC[N+]1(Cc2ccccc2)CCOCC1 [Compound 73, 4-benzyl-4-(3-iodopropargyi)-morpholinium 4-methylbenzenesulfonate] | – | – | – | – | – | – | – | > 500 | > 500 | 125 | 250 | 125 | 125 | 125 |
| CCCCCCCCCCCCCCCC[N+]1(CC#CI)CCCC1 [Compound 35, 1-hexadecyl-1-(3-iodopropargyl)-pyrrolidinium methanesulfonate] | > 500 | > 500 | 0.5 | 0.25 | 4 | 4 | 63 | – | – | – | – | – | – | – |
| CCCCCCCCCCCCCC[N+]1(CC#CI)CCOCC1 [Compound 71, 4-tetradecyl-4-(3-iodopropargyl)-morpholinium bromide] | 8 | 32 | 0.25 | 0.25 | 4 | 1 | 4 | – | – | – | – | – | – | – |
